Results published in patent US20240317792A1, “CYCLIC DINUCLEOTIDE METAL COMPOUND, AND PREPARATION AND APPLICATION THEREOF” (HANGZHOU XINGAO BIOTECHNOLOGY CO., LTD., priority 2022, published 2024).

How the values were obtained:
[1] = test system: IRI mice (male SD mice); experiment: Cerebral ischemia-reperfusion injury (IRI) model, TTC dyeing; assay type: in vivo; conditions: 2 h ischemia, 24 h reperfusion; caudal vein injection 5 mg/kg (Edaravone 6 mg/kg) after 30 min ischemia
Description: Experimental animals: healthy male mice, weighing 280-300 grams, purchased from Shanghai SLAC Laboratory Animal Co. Ltd, with quality certificate No. (SCXK (Shanghai) 2007-0005), and kept in clean animal houses.
Establishment of a mouse cerebral ischemia model of mice and experimental method: 280-300 grams of male […] mice were selected for experiments. The male SD mice were subjected to fasting without water deprivation for 12 h before operation followed by weighing, numbering and random grouping. The male SD mice were anesthetized by intraperitoneal injection of 10 wt. % chloral hydrate at a dosage of 0.3 mL/100 g. After the male SD mice had no pain reflexes, they were subjected to neck skin preparation followed by being fixed on a dissecting table in supine position. After neck skins were disinfected with sterilized cotton balls, about 1 cm of the neck skins were cut in mid-cervical to expose subcutaneous tissues, and subcutaneous fat and the fascia were bluntly plucked with curved tweezers to expose neck muscle groups. The common carotid arteries and their upwardly internal and external carotid branches were visualized by opening the digastric muscle. The external, internal, and common carotid arteries were carefully dissected, and a thin wire was threaded under each of the three arteries, and homemade plastic spacers were placed under the common carotid arteries. The external carotid arteries and proximal ends of the common carotid arteries were ligated. After the internal common carotid arteries were clamped by arterial clips, the common carotid arteries were stuck into with homemade curved hooks followed by picking up and leading in monofilaments. The spacers were removed, and the monofilaments were gently pushed into the internal common carotid arteries and craniums. […] At this time, blood supplies of the middle cerebral arteries from the anterior cerebral arteries were blocked. Thin wires under the internal carotid arteries were ligated to secure the monofilaments to prevent the monofilaments from retreating. Excess thin wires were cut, penicillin was applied to wounds to prevent infection. The male SD mice were sutured and placed under a warm lamp to keep warm. Timing was performed when blood flows of the middle cerebral arteries were blocked by the monofilaments. After 2 hours, the monofilaments were gently pulled out and the black marks were seen, then reperfusion can be achieved.
Triphenyl tetrazolium chloride (TTC) dyeing: After being injured by 2 h cerebral ischemia and 24 h reperfusion, the male SD mice were anesthetized with 0.3 mL/100 g dosage of 10 wt. % of chloral hydrate by intraperitoneal injection and subjected to abdominal aorta bleeding to reduce influence of blood in brains. Then whole heads of the male SD mice were removed immediately after decapitating, and washed with normal saline followed by being promptly put into a −20° C. refrigerator to freeze for 20 min. Frozen brains were collected and subjected to coronal sections, each 2 mm of thickness, by a blade. Then the coronal sections were subjected to dark dyeing in a 2 wt. % of TTC solution for 20 min and fixing in a 4 wt. % of polyformaldehyde solution for 6 h followed by photographing. Then, Photoshop software was used to define area and calculate, and a formula was represented as a percentage of cerebral ischemic area=a total area of white area/a total area of ischemic hemisphere×100%.
Drug preparation and experimental grouping: Edaravone was used as a positive control drug, and an Edaravone injection was 30 mg/20 mL. A single dosage for each of the male SD mice was 0.4 mL/100 g, that is, 6 mg/kg. The cyclic dinucleotide metal compounds prepared in Examples 1-5 were prepared into […] injection drugs with the normal saline. Each of the male SD mice was subjected to caudal vein injection with 0.4 mL/100 g dosage of drugs, that is, 5 mg/kg. The male SD mice were divided into 8 groups (10 mice in each group). […]

[2] = test system: mouse colorectal cancer cell line CT26
Description: Experimental animals: BALB/c ordinary mice, male, weighing 20-22 grams, 7-8 weeks old, at SPF level, purchased from Shanghai SLAC Laboratory Animal Co. Ltd.
Tumour cell line herein was the mouse colorectal cancer cell line CT26 purchased from Chinese Academy of Sciences Cell Bank.
Establishment and intervention of tumor model mice: cells were subjected to culture and subculture, collected in the logarithmic phase and prepared as 1.0×10^7/mL of cell suspension. 0.2 mL of the cell suspension was injected armpits of forelegs of the mice (with a cell number of 2.0×10^6), and tumor transplantation was successful in about 7 days. The mice were randomly divided into 5 groups (10 mice in each group). […] The mice were subjected to administration by intraperitoneal injection with the volume of 200 μL per mice once every 2 days for 20 days. After 20 days, the mice were weighed and their blood was collected. Then the mice were killed, and the tumor were weighed. The formula of inhibitory rate of tumor was represented as inhibitory rate of tumor=[1-average tumor weight of experimental group/average tumor weight of the negative control group]×100%.

[3] = oxaliplatin 5 mg/kg alone or + 10 mg/kg compound, intraperitoneal once every 2 days, 20 days
[4] = peripheral blood after 20 days administration
[5] = serum after 20 days administration

SMILES	Average value of percentage of cerebral ischemic area [1] [%]	Inhibitory rate (of tumor) ([2]; CT26, oxaliplatin 5 mg/kg alone or + 10 mg/kg compound, 20 days) [%]	Survival rate [2, 3] [%]	Weight loss [2, 3] [%]	Hemoglobin [2, 4] [g/L]	Platelets [2, 4]	Red blood cells [2, 4]	White blood cells [2, 4]	ALT [2, 5] [U/L]	Creatinine [2, 5] [µmol/L]
CC1=NN(c2ccccc2)C(=O)C1 [Edaravone, reference compound]	28.97	–	–	–	–	–	–	–	–	–
O=C1[O][Pt]2([NH][C@@H]3CCCC[C@H]3[NH]2)[O]C1=O [oxaliplatin]	–	78	50	40	88 ± 9	368 ± 56 × 10^3/μL	4.51 ± 0.65 × 10^6/μL	3.87 ± 0.08 × 10^3/μL	118.25 ± 7.84	80.33 ± 4.65
